Laboratory results reported in patent publication US5905073A, “Use of 2-hydroxy-5-phenylazobenzoic acid derivatives as colon cancer chemopreventative and chemotherapeutic agents” (priority 1996, dated 1999).
Where two headings read alike, the source gives them in different places.

Columns and labels:
[1] = system: rectal mucosal reactive oxygen metabolite production; conditions: cited from earlier work
HT-29 cells [2] = experiment: Dose response growth inhibition of HT-29 cells, Sulforhodamine B dye binding assay; assay type: cell-based, human; conditions: Homo sapiens
Description: (§1) For dose response studies a sensitive dye binding assay was adapted which allows simultaneous assay of multiple agents and doses in 96-well plates. Cells were plated and allowed to adhere for 24 hours prior to addition of the study drug. Cell densities were then determined 4 days later by fixation of the wells and staining with Sulforhodamine B dye.

colonic inflammation = conditions: several animal models of colonic inflammation; cited from earlier work
LS174T cells = experiment: Dose response growth inhibition of LS174T cells, Sulforhodamine B dye binding assay; assay type: cell-based, human; conditions: Homo sapiens
Description: as §1

HT-29 cells [3] = experiment: Proliferation of HT-29 colon cancer cells, Coulter Counter cell count; assay type: cell-based, human
Description: Cells were grown in Dulbeccos Modified Eagle medium supplemented with 10% calf serum in an atmosphere of 5% CO2 at 37° C. For growth experiments, cells were seeded into 24-well tissue culture dishes (2 cm^2 /well) at a density of 20,000 cells/well and allowed to attach for 12 hours. The growth medium was then changed and replaced with fresh media containing the test drugs.
The test drugs were dissolved in tissue culture media at the desired concentration and added to individual wells. To determine the number of cells per well, media was removed and the cells washed with phosphate buffered saline solution. The cells were then incubated 15 minutes with trypsin-EDTA solution until detached. The detached cells were then removed from the wells and counted using a Coulter Counter (Model ZBI).
The cell numbers shown in Table I are the average of triplicate culture wells.

[4] = system: aberrant crypts induced by azoxymethane (AOM); experiment: Inhibition of azoxymethane-induced aberrant crypt formation (induction study); assay type: in vivo, rat (F344); conditions: in drinking water, distal 7-8 cm of colon
Text: Aberrant crypts were originally described in carcinogen-induced colonic mucosa as crypts of "increased size, thicker epithelial lining and increased pericryptal zones" (Bird et al. (1989) Cancer Surv. 8:189-200). […] The anti-tumor activity of several of these agents has been confirmed in longer term AOM animal studies. The aberrant crypt model is, therefore, an ideal in vivo assay for efficacy of balsalazide and metabolites.
Inhibition of Aberrant Crypt Induction.
Four groups of 5 male F344 rats were used. Animals were 6-8 weeks of age at the start of dosing with a starting weight range within +/-20% of the overall mean. The expected response to AOM treatment from published studies is the formation of 100-140 aberrant crypts per animal (Wargovich et al. (1992) J. Cell. Biochem. 16G:51-54). […]
Body weights were recorded twice weekly, and water consumed by each cage of animals measured twice weekly. Consumption is calculated as average ml/animal/cage.
For aberrant crypt analysis, animals were sacrificed under CO2 euthanasia at the end of either three weeks or five weeks of dosing. […] After a saline rinse, the number of foci of aberrant crypts was scored by counting under a microscope at 40-100× magnification. The length of the colonic tissue was also measured. […]

[5] = cited from earlier work
ulcerative colitis = conditions: active and quiescent ulcerative colitis; cited from earlier work

O=C(O)CCNC(=O)c1ccc(/N=N/c2ccc(O)c(C(=O)O)c2)cc1 [Balsalazide]
reduction of rectal mucosal reactive oxygen metabolite production ([1]; rectal biopsies, ulcerative colitis patients): over 90%
effectiveness relative to taurine, ascorbate or N-acetyl cysteine ([1]; similar concentrations): more effective
IC50 (HT-29 cells [2]; HT-29, Table IV, read-out: IC50 for inhibition of human colon cancer cell proliferation): 5.71 mM
IC50 (HT-29 cells [2]; HT-29, text (FIG. 5), read-out: IC50): 5.7 mM
anti-inflammatory activity in animal models (colonic inflammation): possesses anti-inflammatory activity
IC50 (LS174T cells; Table IV, read-out: IC50 for inhibition of human colon cancer cell proliferation): 5.29 mM
IC50 (LS174T cells; text (FIG. 5), read-out: IC50): 5.2 mM
Cell No. on Day 10 (HT-29 cells [3]; HT-29, 10 mM, average of triplicate wells): 47500
activity at 10000 µM (HT-29 cells [3]; Homo sapiens, HT-29, 240 h, read-out: % of Control Cells): 3.6%
inhibition in the average number of aberrant crypts ([4]; week 1): 61.8%
inhibition in the average number of aberrant crypts ([4]; week five): 58.1%
absorption ([5]; oral balsalazide): virtually unabsorbed through the upper GI tract
drug reaching the colon intact ([5]; oral): 99%
anti-inflammatory activity in ulcerative colitis patients (ulcerative colitis): possesses anti-inflammatory activity
